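The compound was tested at five concentrations on cells cultured in 96-well plates, with a 48-hour exposure period. TGI denotes the concentration required for complete inhibition of growth.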
Tests used:
Assay in all cases: DTP human tumour cell line panel, 48 h
[1] = tested on: A498 renal
[2] = tested on: MALME-3M melanoma
[3] = tested on: NCI-H23 lung
[4] = tested on: RPMI-8226 leukemia
[5] = tested on: SF-295 CNS
[6] = tested on: SN12C renal
[7] = tested on: KM12 colon
[8] = tested on: OVCAR-5 ovarian
[9] = tested on: UACC-257 melanoma
[10] = tested on: SNB-75 CNS
[11] = tested on: CCRF-CEM leukemia
[12] = tested on: IGROV1 ovarian
[13] = tested on: UO-31 renal
[14] = tested on: HOP-92 NSCLC

Row | SMILES | TGI [1] [µM] | TGI [2] [µM] | TGI [3] [µM] | TGI [4] [µM] | TGI [5] [µM] | TGI [6] [µM] | TGI [7] [µM] | TGI [8] [µM] | TGI [9] [µM] | TGI [10] [µM] | TGI [11] [µM] | TGI [12] [µM] | TGI [13] [µM] | TGI [14] [µM]
1 | CO/N=C(/C(=O)OC)c1ccccc1COc1cccc(C(F)(F)F)c1 | > 100 | 46.1 | > 100 | 25.4 | > 100 | > 100 | 92 | > 100 | 52.6 | > 100 | 65.1 | > 100 | > 100 | > 100
2 | O/N=C1\CCc2cc3c(cc21)CCC3 | > 100 | > 100 | > 100 | > 100 | > 100 | > 100 | > 100 | > 100 | > 100 | > 100 | > 100 | > 100 | > 100 | > 100
3 | CC(C)(C)[Si](C)(C)OCC#C[C@@]1(O)CCCCC1CC(Sc1ccccc1)Sc1ccccc1 (some centres not stated) | 30.4 | 32.3 | 36.1 | 73.3 | 28.2 | 23.8 | 63.8 | 27.2 | 29.5 | 28.7 | 39.5 | 33.3 | 26.9 | 37.4
4 | COc1cc(/C=C2\CC3C4CC[C@H]5C[C@@H](O)CC[C@]5(C)C4CC[C@]3(C)C2=O)cc(OC)c1OC (some centres not stated) | 75.5 | 49.1 | > 100 | 27.8 | 21.5 | 95.3 | 73.7 | > 100 | > 100 | 79.7 | > 100 | > 100 | 31.7 | > 100
5 | CC(C)c1ccc2[nH]c(O)c(C3=Nc4ccccc4C3=O)c2c1 | 5.5 | > 100 | > 100 | > 100 | > 100 | > 100 | > 100 | > 100 | > 100 | 9.36 | > 100 | 65.8 | > 100 | 23.4
6 | CN(C)/C=C/c1nnnn1-c1ccc(I)cc1 | > 100 | 44.7 | 56.1 | 46.5 | > 100 | > 100 | 36.7 | 56.4 | 67.5 | 32.2 | 25.9 | 38 | 39.1 | 34.7
7 | NS(=O)(=O)c1nnc(/N=C(/CCC(=O)O)C(=O)O)s1 | > 100 | > 100 | > 100 | > 100 | > 100 | > 100 | > 100 | > 100 | > 100 | > 100 | > 100 | > 100 | > 100 | > 100
8 | CCOC(=O)C(=CNC(=S)Nc1c(CC)cccc1CC)C(=O)OCC | > 100 | > 100 | > 100 | > 100 | > 100 | > 100 | > 100 | > 100 | > 100 | 92.6 | > 100 | > 100 | > 100 | > 100
